Experimental data published in article PMC6234094 (Bioorganic & medicinal chemistry, 2018).

Legend:
[1] = molecular target: T1, QscR (Pseudomonas aeruginosa, UniProt G3XD77); assay: QscR agonism, E. coli JLD271; assay type: cell-based; details: for Reduction in potency relative to OdDHL (1) in QscR: ratio of EC50 to that of OdDHL, QscR reporter; for QscR agonism, result in words: E. coli QscR reporter
[2] = tested on: LasR; details: cited from earlier work
[3] = molecular target: T2, LasR (Pseudomonas aeruginosa, UniProt P25084); assay: LasR agonism, E. coli JLD271; assay type: cell-based; details: for Loss in potency (EC50) relative to OdDHL (1) in LasR: ratio of EC50 to that of OdDHL, LasR reporter
[4] = molecular target: T1, QscR; assay: QscR antagonism in competition with OdDHL, E. coli reporter assay; assay type: cell-based
[5] = molecular target: T1, QscR; details: cited from earlier work
[6] = molecular target: T2, LasR; assay: LasR antagonism in competition with OdDHL, E. coli reporter assay; assay type: cell-based; details: dose response in competition against OdDHL (1)

T2 sequence (P25084 whole entry): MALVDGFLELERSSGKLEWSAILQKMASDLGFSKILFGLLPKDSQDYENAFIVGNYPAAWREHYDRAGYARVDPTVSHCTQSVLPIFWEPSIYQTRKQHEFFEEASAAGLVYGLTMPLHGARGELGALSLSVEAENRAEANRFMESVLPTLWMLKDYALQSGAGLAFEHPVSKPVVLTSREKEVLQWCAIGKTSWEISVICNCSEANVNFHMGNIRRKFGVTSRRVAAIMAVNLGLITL

SMILES	Reduction in potency relative to OdDHL (1) in QscR [1]	LasR agonism, result in words (earlier report) [2]	Loss in potency (EC50) relative to OdDHL (1) in LasR [3]	QscR agonism, result in words [1]	further results
CCCCCCCCCC(=O)CC(=O)N[C@H]1CCSC1=O [Compound 3]	five-fold less potent	agonize LasR comparably to OdDHL			
CCCCCCCCCC(=O)CC(=O)N[C@H]1CCNC1=O [Compound 4]	> 200 fold		10–20 fold		Potency in LasR relative to OdDHL based on EC50 (earlier report) ([2]; less potent than OdDHL): about 100 fold
CCCCCCCCCC(=O)CC(=O)N[C@H]1CCCC1=O [Compound 5]	~ 55 fold	retained agonistic activity in LasR but was not nearly as potent as OdDHL	10–20 fold		
CCCCCCCCCC(=O)CC(=O)NC1CCCC1 [Compound 6]	24 fold	some agonistic activity	100 fold		
CCCCCCCCCC(=O)CC(=O)N[C@H]1CCOC1 [Compound 7]			600 fold		
CCCCCCCCCC(=O)CC(=O)N[C@H]1CCO[C@@H]1O [Compound 8]			~ 1200 fold	very weak QscR agonist	Concentration at which LasR is agonized (earlier report) ([2]; only at very high concentrations): 400 µM
CCCCCCCCCC(=O)CC(=O)NCC1CCCO1 (centres unmarked) [Compound 9]				negligible activity	IC50 [4]: > 250 µM
CCCCCCCCCCCS(=O)(=O)N[C@H]1CCOC1=O [Compound 10]				weak agonistic activity	QscR activity, result in words (earlier report) [5]: mild agonist; LasR agonism, result in words ([3]; E. coli LasR reporter): inactive; LasR antagonism, result in words [6]: failed to antagonize LasR; LasR activity, result in words (earlier report) [2]: inactive
CCCCCCCCCC(=O)CC(=O)O[C@H]1CCOC1=O [Compound 11]					IC50 [4]: > 250 µM
